Assays:
BRAPP = experiment: Example I postemergence foliar-applied, greenhouse, direct seeded rice weeds; assay type: in vivo, Brachiaria platyphylla (Griseb.) Nash
Text: (§1) Seeds or nutlets of the desired test plant species were planted in a soil matrix prepared by mixing a loam or sandy loam soil (e.g., 28.6 percent silt, 18.8 percent clay, and 52.6 percent sand, with a pH of about 5.8 and an organic matter content of about 1.8 percent) and calcareous grit in an 80 to 20 ratio. The soil matrix was contained in plastic pots with a volume of 1 quart and a surface area of 83.6 square centimeters (cm^2). When required to ensure good germination and healthy plants, a fungicide treatment and/or other chemical or physical treatment was applied. The plants were grown for 8-22 days in a greenhouse with an approximate 14 hr. photoperiod which was maintained at about 29° C. during the day and 26° C. during the night. Nutrients (Peters Excel® 15-5-15 5-Ca 2-Mg and iron chelate) were applied in the irrigation solution as needed and water was added on a regular basis. Supplemental lighting was provided with overhead metal halide 1000-Watt lamps as necessary. The plants were employed for testing when they reached the first through fourth true leaf stage.
Treatments consisted of the acid or esters of 4-amino-3-chloro-5-fluoro-6-(4-chloro-2-fluoro-3-methoxy-phenyl)pyridine-2-carboxylic acid (Compound A), each formulated as an SC (suspension concentrate), and various herbicidal components alone and in combination.
Other herbicidal components were applied on an acid equivalent (ae) or active ingredient (ai) basis and included acetyl coA carboxylase (ACCase)-inhibiting herbicides (cyclohexanedione and aryloxyphenoxypropionate chemical classes) cyhalofop-butyl formulated as Clincher® SF (285 gr ai/L EC), diclofop-methyl formulated as Hoelon® 3EC, fenoxaprop-p-ethyl+isoxadifen-ethyl formulated as RiceStar® HT (0.58 lb./gal EC), fenoxaprop-p-ethyl+mefenpyr diethyl formulated as Puma® IEC, metamifop formulated as Metamifop EC, haloxyfop-methyl formulated as Gallant Super®, fluazifop-p-butyl formulated as Fusilade® DX, quizalofop-p-ethyl formulated as Assure® II, profoxydim formulated as Aura® 20EC, clethodim applied as Intensity®, sethoxydim formulated as Poast®, and tralkoxydim formulated as Achieve®.
(§2) Treatment requirements were calculated based upon the rates being tested, the concentration of active ingredient or acid equivalent in the formulation, and a 12 mL application volume at a rate of 187 L/ha.
For treatments comprised of formulated compounds, measured amounts of compounds were placed individually in 25 mL glass vials and diluted in a volume of 1.25% (v/v) Agri-Dex® crop oil concentrated to obtain 12× stock solutions. […] Application solutions were prepared by adding an appropriate amount of each stock solution (e.g., 1 mL) and diluted to the appropriate final concentrations with the addition of 10 mL of an aqueous mixture of 1.25% (v/v) crop oil concentrate so that the final spray solutions contained 1.25+/−0.05% (v/v) crop oil concentrate.
All stock solutions and applications solutions were visually inspected for compound compatibility prior to application. Spray solutions were applied to the plant material with an overhead Mandel track sprayer equipped with a 8002E nozzles calibrated to deliver 187 L/ha over an application area of 0.503 m^2 at a spray height of 18 to 20 inches (46 to 50 cm) above average plant canopy height. Control plants were sprayed in the same manner with the solvent blank.
(§3) The treated plants and control plants were placed in a greenhouse as described above and watered by sub-irrigation to prevent wash-off of the test compounds. After approximately 3 weeks, the condition of the test plants as compared with that of the untreated plants was determined visually and scored on a scale of 0 to 100 percent where 0 corresponds to no injury or growth inhibition and 100 corresponds to complete kill. […]

DIGSA = experiment: as above; assay type: in vivo, Digitaria sanguinalis (L.) Scop.
Text: as §1
Treatments consisted of the acid or esters of 4-amino-3-chloro-5-fluoro-6-(4-chloro-2-fluoro-3-methoxy-phenyl)pyridine-2-carboxylic acid (Compound A), each formulated as an SC (suspension concentrate), and various herbicidal components alone and in combination. […]
as §2
For treatments comprised of formulated compounds, measured amounts of compounds were placed individually in 25 mL glass vials and diluted in a volume of 1.25% (v/v) Agri-Dex® crop oil concentrated to obtain 12× stock solutions. […]
as §3

PHAMI = experiment: Example IV postemergence foliar-applied, greenhouse, cereal crops weeds; assay type: in vivo, Phalaris minor Retz.
Protocol: Seeds of the desired test plant species were planted in Sun Gro MetroMix® 306 planting mixture, which typically has a pH of 6.0 to 6.8 and an organic matter content of about 30 percent, in plastic pots with a surface area of 103.2 square centimeters (cm^2). […] The plants were grown for 7-36 days in a greenhouse with an approximate 14 hour photoperiod which was maintained at about 18° C. during the day and about 17° C. during the night. Nutrients and water were added on a regular basis and supplemental lighting was provided with overhead metal halide 1000-Watt lamps as necessary. The plants were employed for testing when they reached the second or third true leaf stage.
Treatments consisted of the benzyl ester of 4-amino-3-chloro-5-fluoro-6-(4-chloro-2-fluoro-3-methoxy-phenyl)pyridine-2-carboxylic acid (Compound A), formulated as an SC, a second cereal herbicide alone and then both in combination.
Other herbicidal components were applied on an active ingredient basis and included acetyl-CoA carboxylase (ACCase)-inhibiting herbicides clodinafop-propargyl, fenoxaprop-P-ethyl, pinoxaden and tralkoxydim.
Measured aliquots of benzyl ester of 4-amino-3-chloro-5-fluoro-6-(4-chloro-2-fluoro-3-methoxy-phenyl)pyridine-2-carboxylic acid (Compound A) were placed in 25 milliliter (mL) glass vials and diluted in a volume of 1.25% (v/v) Agri-Dex® crop oil concentrate to obtain stock solutions. Compound requirements are based upon a 12 mL application volume at a rate of 187 liters per hectare (L/ha). […] Formulated compounds were applied to the plant material with an overhead Mandel track sprayer equipped with an 8002E nozzle calibrated to deliver 187 L/ha over an application area of 0.503 square meters (m^2) at a spray height of 18 inches (46 cm) above average plant canopy. Control plants were sprayed in the same manner with the solvent blank.
The treated plants and control plants were placed in a greenhouse as described above and watered by sub-irrigation to prevent wash-off of the test compounds. After 20-22 days, the condition of the test plants as compared with that of the control plants was determined visually and scored on a scale of 0 to 100 percent where 0 corresponds to no injury and 100 corresponds to complete kill.
Colby's equation was used to determine the herbicidal effects expected from the mixtures (Colby, S. R. 1967. Calculation of the synergistic and antagonistic response of herbicide combinations. Weeds 15:20-22.).
The following equation was used to calculate the expected activity of mixtures containing two active ingredients, A and B: Expected=A+B−(A×B/100)

COc1c(Cl)ccc(-c2nc(C(=O)OCc3ccccc3)c(Cl)c(N)c2F)c1F [Compound A Benzyl Ester, benzyl ester of 4-amino-3-chloro-5-fluoro-6-(4-chloro-2-fluoro-3-methoxy-phenyl)pyridine-2-carboxylic acid]
Visual Weed Control (%) - 20 DAA BRAPP Obs (BRAPP; 4.38 gae/ha): 50% | Visual Weed Control (%) - 20 DAA BRAPP Obs (BRAPP; 8 gae/ha): 70% | Visual Weed Control (%) - 20 DAA BRAPP Obs (BRAPP; 8.75 gae/ha): 70% | Visual Weed Control (%) - 20 DAA BRAPP Obs (BRAPP; 16 gae/ha): 75% | Visual Weed Control (%) - 20 DAA BRAPP Obs (BRAPP; 32 gae/ha): 90% | Visual Weed Control (%) - 20 DAA DIGSA Obs (DIGSA; 8 gae/ha): 15% | Visual Weed Control (%) - 20 DAA DIGSA Obs (DIGSA; 16 gae/ha): 25% | Visual Weed Control (%) - 20 DAA DIGSA Obs (DIGSA; 32 gae/ha): 35% | Visual Weed Control (%) - 21 DAA PHAMI Obs (PHAMI; Compound A Benzyl Ester 5 gai/ha): 0% | Visual Weed Control (%) - 21 DAA PHAMI Obs (PHAMI; Compound A Benzyl Ester 10 gai/ha): 0%

Reference: patent US9232796B2, “Herbicidal compositions comprising 4-amino-3-chloro-5-fluoro-6-(4-chloro-2-fluoro-3-methoxyphenyl) pyridine-2-carboxylic acid or a derivative thereof and acetyl-CoA carboxylase (ACCase) inhibitors” (DOW AGROSCIENCES LLC, priority 2012, dated 2016)
